# Assay results: US20090232762A1, “COMPOSITIONS FOR DELIVERY OF THERAPEUTIC AGENTS” (priority 2008, published 2009)
# Where two headings read alike, the source gives them in different places.
# What was measured:
# [1] = cited from earlier work; for LogP (Drug): drug named
# [2] = biological target: T1, yCD-His (Saccharomyces cerevisiae, UniProt Q12178); assay: Enzyme activity of yCD-His (substrate turnover); format: biochemical, S. cerevisiae
# T1 construct: The resulting 474 bp gene was subcloned into pET-15b; made in house; host or cells: E. coli BL21(DE3)
# T1 sequence (Q12178 whole entry): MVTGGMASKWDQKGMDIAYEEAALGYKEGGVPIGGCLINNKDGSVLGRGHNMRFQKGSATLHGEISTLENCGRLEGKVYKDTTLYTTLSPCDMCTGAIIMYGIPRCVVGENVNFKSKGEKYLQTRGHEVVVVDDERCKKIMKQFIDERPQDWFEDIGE
# Experimental: (§1) The S. cerevisiae yeast cytosine deaminase (yCD) enzyme was cloned and expressed. The resulting 474 bp gene was subcloned into pET-15b to facilitate purification of the protein via a fused histidine tag and transformed into competent BL21(DE3) cells for protein expression. An estimate of about 25-30 mg of pure yCD-His was collected from a 1-liter culture. Thrombin cleavage of the histidine tag on yCD-His was achieved by incubating the protein for 2 hours at 23° C. in thrombin cleavage buffer. Enzyme activity characteristics for yCD and yCD-His was investigated using both the prodrug 5FC and the enzyme's natural substrate, the DNA base cytosine. Five-FC turnover rates remained within 10^5 M^−1·s^−1 (Table 1) for both proteins (see E. Kievit et al. Cancer Res. 2000, 60:6649-6655). The diffusion controlled limit for extremely efficient enzymes and their substrates in solution is in the range 10^8-10^9 M^−1·s^−1, therefore it was concluded that yCD was a very efficient pretargeting enzyme for catalyzing 5FC to 5FU conversion, especially applicable to GDEPT.
# [3] = biological target: T2, yCD (Saccharomyces cerevisiae, UniProt Q12178); assay: Enzyme activity of yCD (His tag cleaved); format: biochemical, S. cerevisiae
# T2 construct: The resulting 474 bp gene was subcloned into pET-15b; histidine tag (pET-15b) (N, cleaved yes); made in house; host or cells: E. coli BL21(DE3)
# T2 sequence (Q12178 whole entry): as above
# Experimental: as §1
# [4] = system: MDA-MB-231; assay: 5FU toxicity in MDA-MB-231 (drug concentration vs. % cell death, Hill-Slope fit); format: cell-based; details: Homo sapiens; MDA-MB-231, % cell death, Hill-Slope curve fit
# [5] = system: MDA-MB-231; details: reported on the National Cancer Institute website; cited from earlier work
structure (smiles),measurement,setting,value
"Nc1nc(=O)[nH]cc1F [5-FC, 5-fluorocytosine]",LogP (Prodrug),[1]; prodrug column,−1.79
same,kcat,[2],315 s⁻¹
same,kcat,[3],448 s⁻¹
"O=c1[nH]cc(F)c(=O)[nH]1 [5-FU, 5-fluorouracil]",LogP (Drug),[1],−2.17
same,IC50,[4],2900 nM
same,IC50,[5],900 nM
"CCc1c2c(nc3ccc(O)cc13)-c1cc3c(c(=O)n1C2)COC(=O)[C@]3(O)CC [SN-38, 7-ethyl-10-hydroxycamptothecin]",LogP (Drug),[1],+2.02
"COc1cccc2c1C(=O)c1c(O)c3c(c(O)c1C2=O)C[C@@](O)(C(=O)CO)C[C@@H]3O[C@H]1C[C@H](N)[C@H](O)[C@H](C)O1 [DOX, doxorubicin]",LogP (Drug),[1],+0.36
"Nc1cc[nH]c(=O)n1 [Cytosine, cytosine]",kcat,[2],607 s⁻¹
same,kcat,[3],741 s⁻¹
